Reference: patent US9783796B2, “Amidase, gene for the same, vector, transformant, and method for production of optically active carboxylic acid amide and optically active carboxylic acid by using any one of those items” (KANEKA CORPORATION, priority 2007, dated 2017)
“Also recorded” adds a separate entry of the source. Where two headings read alike, the source gives them in different places.

B1: HCS: amidase purified from Cupriavidus sp. KNK-J915 strain (FERM BP-10739), amino acid sequence SEQ ID NO:1 (protein, listed as Cupriavidus sp.)
chain: MPTDIQTLQTRLHDGAVSRADVIAQAAQHAQQPDAHAVFLHTTFDTAAQVAKAADAACLAGKPLHPLAGLPVSVKDLFNIAGEASRAGSPVRSDALAATADATVVRRLRESGAALVGRTNMTEFAFSGVGINPHFGTPVNPADKQVARIPGGSSSGAAVSVALGLAVAGLGSDTGGSIRIPAALCGLTGFKPTARRVPLDGAFPLSYTLDTACAMARTVQDCVLVDSVIADQAVLPVIKGAAGIRLAIPRQVLLDDLDDTVARAFDRALGRLSAAGVQIEHIDLPELAELATINASGGFTAAEAHAIHRHVLATRREQYDPRVASRIDRGAAMSAADYVDLMRARLDWITRVAARLEGFDAVACPTVPMVAPPIAPLVADDALFFHTNALLLRNTSAFNFLDGCSISLPCHQPDELPVGLMLSHGALRDAQLLGTAIALESIVKPAA

Tests used:
HCS = assay: Substrate specificity of HCS; type: biochemical, Cupriavidus sp. KNK-J915; conditions: for Relative activity (%): activity on (R,S)-nipecotamide set to 100, 1% substrate, 30° C., 100 mM phosphate buffer pH 7.0
Protocol: Next, the substrate specificity of HCS was analyzed. The substrate compound was added in a form of a 1% solution. The enzyme reaction was allowed to proceed at 30° C. in 100 mM phosphate buffer (pH 7.0). The resultant solution was analyzed under the high speed liquid chromatography analysis conditions A described in Example 1 or the high speed liquid chromatography analysis conditions B shown below.
High Speed Liquid Chromatography Analysis Condition B
Column: SUMICHIRAL OA-5000 (4.6 mmφ×150 mm, product of Sumika Chemical Analysis Service, Ltd.)
Eluant: 2 mM CuSO4 aqueous solution
(§1) Column temperature: 30° C.
Measurement wavelength: 254 nm

purified enzyme (HCS) = assay: Selective hydrolysis of racemic carboxylic acid amides with the purified enzyme solution (Examples 8 to 10); type: biochemical, Cupriavidus sp. KNK-J915; conditions: 100 mM phosphate buffer pH 7.0, 30° C.; for conversion ratio: 1% substrate; for optical purity: product acid, 1% racemic substrate
Protocol: To 100 mM phosphate buffer (pH 7.0) were added 1% racemic pipecolic acid amide and the purified enzyme solution obtained in Example 1, and allowed to react at 30° C. Then high speed liquid chromatography analysis was conducted to determine the conversion ratio (%) and optical purity (% e.e.). […] Conversion ratio (%)=P/(S1+P)×100
(§2) (P: amount of product (mol), S1: amount of residual substrate (mol)) Optical purity (% e.e.)=(A−B)/(A+B)×100
(§3) (A represents the amount of the target enantiomer, and B represents the amount of the corresponding enantiomer.)
To 100 mM phosphate buffer solution (pH 7.0) were added 1% racemic indoline carboxylic acid amide and the purified enzyme solution obtained in Example 1. The obtained mixture was allowed to react at 30° C., and then the substrate and product in the reaction liquid were converted into derivatives with acetic anhydride. The conversion ratio (%) and optical purity (% e.e.) were determined by high speed liquid chromatography analysis of the obtained derivatives.
To 100 mM phosphate buffer (pH 7.0) were added 1% racemic phenyl propionic acid amide and the purified enzyme solution obtained in Example 1, and allowed to react at 30° C. The conversion ratio (%) and optical purity (% e.e.) were determined by high speed liquid chromatography analysis.

[1] = system: putative amidase derived from Ralstonia eutropha JMP134 strain; assay: Selective hydrolysis of S-enantiomer in racemic N-benzylnipecotamide with culture solution of E. coli HB101 (pNRE); type: biochemical
From the text: Primer 7 (SEQ ID NO:10 in the sequence listing) having the NdeI site added to the initiation codon site, and primer 8 (SEQ ID NO:11 in the sequence listing) having an SacI site immediately downstream of the termination codon were synthesized based on the base sequence (SEQ ID NO:9 in the sequence listing) encoding the putative amidase derived from Ralstonia eutropha JMP134 strain, which has high sequence identity to the base sequence of the present invention derived from Cupriavidus sp. KNK-J915 (FERM BP-10739) determined in Example 3. An amount of 50 μl of a buffer for ExTaq was prepared. This buffer contained the two primers (primer 7 and primer 8, each 50 pmol), chromosomal DNA derived from Ralstonia eutropha JMP134 strain (10 ng), dNTP (each 10 nmol) and ExTaq (2.5 U, product of TAKARA SHUZO Co., Ltd.). Heat denaturation (97° C., 1 minute), annealing (60° C., 1 minute), and an extension reaction (72° C., 1.5 minutes) were repeated for 30 cycles. The reaction fluid was cooled to 4° C. and subjected to agarose gel electrophoresis to confirm amplification of the DNA. […]
To 100 mM phosphate buffer (pH 7.0) were added 1% racemic N-benzylnipecotamide and the culture solution of E. coli HB101 (pNRE) obtained in Example 11, and allowed to react at 30° C. Thereafter, the conversion ratio (%) and optical purity (% e.e.) were determined by high speed liquid chromatography analysis. […]

E. coli HB101 (pNCS) = assay: Selective hydrolysis of S-enantiomer in racemic nipecotamide with culture solution of E. coli HB101 (pNCS); type: biochemical, Escherichia coli; conditions: pH 8.0, 25 hours, 45° C.; for optical purity: from racemic nipecotamide
Protocol: An amount of 10.1 g of racemic nipecotamide was dissolved in water to prepare a substrate solution having a pH adjusted to 8.0. To 200 ml of the prepared substrate solution was added 2 ml of a culture solution obtained by culturing E. coli HB101 (pNCS) as in Example 6, and stirred for 25 hours at 45° C. After completion of the reaction, the reaction liquid was heated for 30 minutes at 70° C., and centrifuged to remove solid matters including cells. Subsequently, the substrate and the product in the reaction liquid were converted into derivatives with benzyl chloroformate. The obtained derivatives were analyzed by high speed liquid chromatography to determine the conversion ratio (%) and optical purity (% e.e.). […] Conversion ratio (%)=P/(S1+P)×100
as §2, §3
High Speed Liquid Chromatography Analysis Condition
[Analysis of Conversion Ratio]
(§4) Column: YMC-A303 (4.6 mmφ×250 mm, product of YMC Co., Ltd.)
Eluant: 20 mM phosphate aqueous solution (pH 2.5)/acetonitrile=7/3
Column temperature: 35° C.
(§5) Measurement wavelength: 210 nm
[Optical Purity Analysis]
Column: CHIRALPAK AD-RH (4.6 mmφ×150 mm, product of DAICEL CHEMICAL INDUSTRIES, LTD.)
Column temperature: room temperature

[2] = Amidase activity of purified enzyme (production of N-benzylnipecotic acid, HPLC); type: biochemical; conditions: 1% N-benzylnipecotamide, 100 mM phosphate buffer pH 7.0, 1 hour, 30° C.
Protocol: In the following examples, the amidase activity was determined by the following procedure. To 100 mM phosphate buffer (pH 7.0) were added 1% N-benzylnipecotamide and an enzyme solution, and allowed to react for 1 hour at 30° C. Then, the solution was analyzed under high speed liquid chromatography analysis conditions A. Enzyme activity which produces 1 μmol of N-benzylnipecotic acid per 1 minute under these conditions was defined as 1 unit.
High Speed Liquid Chromatography Analysis Condition A
as §4
Eluant: 20 mM phosphate aqueous solution (pH 2.5)/acetonitrile=9/1
as §1, §5

[3] = Optimum pH, optimum temperature and thermal stability of the amidase reaction of purified HCS; type: biochemical; conditions: stable at or below this temperature
Protocol: The Optimum pH and optimum temperature of an amidase reaction of the purified enzyme obtained in Example 1, and thermal stability of the enzyme were determined by quantifying N-benzylnipecotic acid produced in the hydrolysis reaction using N-benzylnipecotamide as a substrate, by HPLC. For determination of the optimum pH, the reaction was allowed to proceed at each pH for 1 hour at 30° C., and stopped by addition of acetonitrile. The resultant solution was analyzed under the high speed liquid chromatography analysis conditions A described in Example 1. For determination of the optimum temperature, the reaction was allowed to proceed at each temperature for 1 hour, and stopped by addition of acetonitrile. The resultant solution was analyzed under the high speed liquid chromatography analysis conditions A described in Example 1. For determining the thermal stability, after incubation at each temperature for 30 minutes, the reaction was allowed to proceed for 1 hour, and stopped by addition of acetonitrile. The resultant solution was analyzed under the high speed liquid chromatography analysis conditions A described in Example 1.

Molecule | amidase activity of HCS on the substrate (in words) (HCS) | Relative activity (%) (HCS) | further results
NC(=O)C1Cc2ccccc2N1 (centres unmarked) | particularly strong amidase activity; also recorded: especially strong activity | 64 | conversion ratio (purified enzyme (HCS)): 39.2%
O=C(NCc1ccccc1)C1CCCNC1 (racemic) [(R,S)-N-benzylnipecotamide] | particularly strong amidase activity; also recorded: especially strong activity | 49 | conversion ratio ([1]; 1% substrate, 100 mM phosphate buffer pH 7.0, 30° C.): 50.1%
NC(=O)C(O)c1ccccc1 (racemic) [(R,S)-mandelic acid amide] | particularly strong amidase activity; also recorded: especially strong activity | 49 | 
NC(=O)C1CCCNC1 (racemic) [(R,S)-nipecotamide] | particularly strong amidase activity; also recorded: especially strong activity | 100 | conversion ratio (E. coli HB101 (pNCS)): 50.2%
CC(C(N)=O)c1ccccc1 (racemic) [(R,S)-phenyl propionic acid amide] |  | 309 | amidase activity of HCS on the substrate (in words) (HCS; listed as phenyl propionic acid amide): particularly strong amidase activity; amidase activity of HCS on the substrate (in words) (HCS; listed as phenylpropionic acid amide): especially strong activity; conversion ratio (purified enzyme (HCS)): 36.0%
NC(=O)C1CCCCN1 (racemic) [(R,S)-pipecolic acid amide] | particularly strong amidase activity; also recorded: especially strong activity | 34 | conversion ratio (purified enzyme (HCS)): 18.3%
CC(N)C(N)=O (racemic) [D,L-alanine amide] |  | 0 | 
CC(C)CC(N)C(N)=O (racemic) [D,L-leucine amide] |  | 0 | 
NC(=O)C(N)Cc1ccccc1 (racemic) [D,L-phenylalanine amide] | weak amidase activity | 3.4 | 
NC(=O)C1CCCN1 (racemic) [D,L-proline amide] |  | 0 | 
NC(=O)CC(N)c1ccccc1 (racemic) [D,L-β-phenylalanine amide] |  | 0 | 
O=C(O)[C@H]1Cc2ccccc2N1 [(R)-indoline carboxylic acid] |  |  | optical purity (purified enzyme (HCS)): 97.8 % e.e.
NC(=O)[C@@H]1CCCNC1 [(R)-nipecotamide] |  |  | optical purity (E. coli HB101 (pNCS)): 98.3 % e.e.
O=C(O)[C@H]1CCCCN1 [(R)-pipecolic acid] |  |  | optical purity (purified enzyme (HCS)): 80.1 % e.e.
O=C(NCc1ccccc1)[C@@H]1CCCNC1 [(R)—N-benzylnipecotamide] |  |  | optical purity ([1]; residual amide, pH 7.0, 30° C.): 99.4 % e.e.
O=C(O)[C@H]1CCCNC1 [(S)-nipecotic acid] |  |  | optical purity (E. coli HB101 (pNCS)): 97.1 % e.e.
C[C@H](C(=O)O)c1ccccc1 [(S)-phenyl propionic acid] |  |  | optical purity (purified enzyme (HCS)): 89.1 % e.e.
NC(=O)c1ccccc1 [benzamide] | weak amidase activity | 5.4 | 
CC(C)C(N)=O [isobutylamide] | particularly strong amidase activity; also recorded: especially strong activity | 230 | 
CCC(N)=O [propionic acid amide] | particularly strong amidase activity; also recorded: especially strong activity | 59 | 
B1 |  |  | specific activity of the purified enzyme [2]: 1.7 U/mg-protein; Thermal stability: temperature at which stable [3]: ≤ 50 °C
